In patent publication US20240190904A1, “Heteroaryl compounds as inhibitors of RIP2 kinase, composition and application thereof” (Accro Bioscience (HK) Limited, priority 2021, published 2024):

What was measured:
Format in all cases: in vivo
[1] = Pharmacokinetic evaluation in beagle dog; conditions: for AUC / Vd / clearance / half-life / Cmax / Tmax: plasma
Method: The beagle dog pharmacokinetic characteristics of compounds were tested by standard protocols. The candidate compounds were made into clear solution for single intravenous injection (i.v.) and suspension for oral administration (p.o.). Intravenous vehicle is 5% DMSO+95% Saline while oral vehicle is 0.5% CMCNa. The experiment used 9 dogs. The dogs for intravenous at a dose of 1 mg/kg. Plasma samples were collected at 0 h (before dosing) and 0.083 h, 0.25 h, 0.5 h, 1 h, 2 h, 4 h, 8 h, 24 h after dosing. Three dogs were orally administrated at a dose of 5 mg/kg. Another 3 dogs were orally administrated at a dose of 15 mg/kg or 30 mg/kg. Plasma samples were collected at 0 h (before dosing) and 0.25 h, 0.5 h, 1 h, 2 h, 4 h, 6 h, 8 h, 24 h after dosing.
(§1) Blood samples were placed in tubes containing K2-EDTA and stored on ice until centrifuged. The blood samples were centrifuged at 6800 g for 6 minutes at 2-8° C. within 1 h after collected and stored frozen at approximately −80° C.
(§2) The analytical results were confirmed using quality control samples for intra-assay variation. The accuracy of >66.7% of the quality control samples and 50% of all QC samples at each concentration level were between 80-120% of the known value(s).
(§3) Standard set of parameters including Area Under the Curve (AUC(0-t) and AUC(0-∞)), elimination half-live (T1/2), maximum plasma concentration (Cmax), time to reach maximum plasma concentration (Tmax) were calculated using noncompartmental analysis modules in FDA certified pharmacokinetic program Phoenix WinNonlin 7.0 (Pharsight, USA) by the Study Director.

[2] = Pharmacokinetic evaluation in rats; conditions: for AUC / Vd / clearance / half-life / Cmax / Tmax: male, plasma; for AUC / Vd / clearance / half-life / Cmax / Tmax / F: rat
Method: The rat pharmacokinetic characteristics of compounds were tested by standard protocols. The candidate compounds were made into clear solution for single intravenous injection (i.v.) and suspension for oral administration (p.o.). Intravenous vehicle is 5% DMSO+95% Saline while oral vehicle is 0.5% CMCNa. The experiment used 9 male rats and 3 rats for intravenous at a dose of 2 mg/kg. Plasma samples were collected at 0 h (before dosing) and 0.083 h, 0.25 h, 0.5 h, 1 h, 2 h, 4 h, 8 h, 24 h after dosing. 3 rats were orally administrated at a dose of 10 mg/kg and 3 rats were orally administrated at a dose of 100 mg/kg. Plasma samples were collected at 0 h (before dosing) and 0.25 h, 0.5 h, 1 h, 2 h, 4 h, 6 h, 8 h, 24 h after dosing.
as §1, §2, §3

[3] = Pharmacokinetic evaluation in mice; conditions: for AUC / Vd / clearance / half-life / Cmax / Tmax: male, mouse, plasma
Method: The mice pharmacokinetic characteristics of compounds were tested by standard protocols. The candidate compounds were made into clear solution for single intravenous injection (i.v.) and suspension for oral administration (p.o.). Intravenous vehicle is 5% DMSO+95% Saline while oral vehicle is 0.5% CMCNa. The experiment used 48 male mice and 24 mice for intravenous at a dose of 2 mg/kg. Plasma samples were collected at 0 h (before dosing) and 0.083 h, 0.25 h, 0.5 h, 1 h, 2 h, 4 h, 8 h, 24 h after dosing. Another 24 mice were orally administrated with a dose of 10 mg/kg. Plasma samples were collected at 0 h (before dosing) and 0.25 h, 0.5 h, 1 h, 2 h, 4 h, 6 h, 8 h, 24 h after dosing.
as §1, §2, §3

[4] = system: MDP induced peritonitis; experiment: MDP (muramyl dipeptide) induced peritonitis, IL-6 by ELISA; conditions: mice, gavage, same dosage as GSK2983559 (10 mg/kg), 3 hours post MDP
Method: Mice were divided into four groups Including normal group, DMSO group, positive control group (GSK2983559) and compound group. Mice were dosed by gavage with either GSK2983559 at 10 mg/kg or candidate compounds at 3, 10 mg/kg 30 minutes prior to MDP injection (100 μg/mouse, ip). At 3 hours post MDP administration, the blood sample was collected from ocular vein after anesthesia. IL-6 levels were detected by ELISA.

F ([1]; p.o. 5 mg/kg) [%] | AUC ([1]; iv, i.v. 1 mg/kg) [ng·h/mL] | Vd ([1]; iv, i.v. 1 mg/kg) [L/kg] | clearance ([1]; iv, i.v. 1 mg/kg) [mL/min/kg] | half-life ([1]; iv, i.v. 1 mg/kg) [h] | AUC ([1]; po, p.o. 5 mg/kg) [ng·h/mL] | Cmax ([1]; po, p.o. 5 mg/kg) [ng/mL] | Tmax ([1]; po, p.o. 5 mg/kg) [h] | AUC ([2]; iv, i.v. 2 mg/kg) [ng·h/mL] | Vd ([2]; iv, i.v. 2 mg/kg) [L/kg] | clearance ([2]; iv, i.v. 2 mg/kg) [mL/min/kg] | half-life ([2]; iv, i.v. 2 mg/kg) [h] | AUC ([2]; po, p.o. 10 mg/kg) [ng·h/mL] | Cmax ([2]; po, p.o. 10 mg/kg) [ng/mL] | Tmax ([2]; po, p.o. 10 mg/kg) [h] | Cmax ([2]; po, p.o. 100 mg/kg) [ng/mL] | Tmax ([2]; po, p.o. 100 mg/kg) [h] | F ([2]; p.o. 10 mg/kg) [%] | SMILES | plasma exposure and bioavailability in beagle dog (in words) [1] | plasma exposure and bioavailability in rat (in words) [2] | also measured
131 | 1640 | 1.7 | 9.5 | 2.1 | 10800 | 2190 | 0.7 | 7890 | 0.6 | 4.2 | 1.7 | 18800 | 3320 | 3.3 | 68400 | 4.7 | 48 | COc1cc2nccc(Nc3ccc4scnc4c3)c2cc1P(C)(C)=O [A6] | excellent plasma exposure and bioavailability | excellent plasma exposure and bioavailability | F ([1]; p.o. 30 mg/kg): 184%; AUC ([1]; po, p.o. 30 mg/kg): 90800 ng·h/mL; Cmax ([1]; po, p.o. 30 mg/kg): 8630 ng/mL; Tmax ([1]; po, p.o. 30 mg/kg): 2.7 h; AUC ([2]; po, p.o. 100 mg/kg): 729000 ng·h/mL; F ([2]; p.o. 100 mg/kg): 185%; plasma exposure and bioavailability in mice (in words) [3]: excellent plasma exposure and bioavailability; AUC ([3]; iv, i.v. 2 mg/kg): 2990 ng·h/mL; Vd ([3]; iv, i.v. 2 mg/kg): 1.1 L/kg; clearance ([3]; iv, i.v. 2 mg/kg): 11.1 mL/min/kg; half-life ([3]; iv, i.v. 2 mg/kg): 1.2 h; AUC ([3]; po, p.o. 10 mg/kg): 19200 ng·h/mL; Cmax ([3]; po, p.o. 10 mg/kg): 9610 ng/mL; Tmax ([3]; po, p.o. 10 mg/kg): 0.5 h; F ([3]; p.o. 10 mg/kg): 129%; inhibition of the level of IL-6 compared with positive control (in words) [4]: more effectively than positive control GSK2983559
212 | 3800 | 0.7 | 4.3 | 1.9 | 40300 | 9720 | 1.1 | 26500 | 0.19 | 1.2 | 18 | 248000 | 20400 | 1.8 | 197000 | 24 | 187 | CP(C)(=O)c1cc2c(Nc3ccc4scnc4c3)ccnc2cc1OC(F)(F)F [A24] | excellent plasma exposure and bioavailability | excellent plasma exposure and bioavailability | F ([1]; p.o. 15 mg/kg): 88%; AUC ([1]; po, p.o. 15 mg/kg): 50400 ng·h/mL; Cmax ([1]; po, p.o. 15 mg/kg): 13300 ng/mL; Tmax ([1]; po, p.o. 15 mg/kg): 3 h; F ([2]; p.o. 100 mg/kg): 244%; plasma exposure and bioavailability in mice (in words) [3]: excellent plasma exposure and bioavailability; AUC ([3]; iv, i.v. 2 mg/kg): 22600 ng·h/mL; Vd ([3]; iv, i.v. 2 mg/kg): 0.27 L/kg; clearance ([3]; iv, i.v. 2 mg/kg): 1.5 mL/min/kg; half-life ([3]; iv, i.v. 2 mg/kg): 2.2 h; AUC ([3]; po, p.o. 10 mg/kg): 89100 ng·h/mL; Cmax ([3]; po, p.o. 10 mg/kg): 16200 ng/mL; Tmax ([3]; po, p.o. 10 mg/kg): 0.8 h; F ([3]; p.o. 10 mg/kg): 79%; inhibition of the level of IL-6 compared with positive control (in words) [4]: more effectively than positive control GSK2983559
